# Experiments:
# [1] = system: TH+ neurons derived from mouse iPS cells; test: In vitro survival of TH+ neurons with caspase 3 expression as index of apoptosis; format: cell-based; conditions: control 18.0±5.9%; no significant difference among four groups
# Method: After the cell sorting, in order to induce the reaggregation of the cells, a PSA-NCAM^+ cell group was seeded in a DMEM/F12 medium (manufactured by Wako Pure Chemical Industries, Ltd.) in a 96-well plate at a concentration (cell density) of 20000 cells/well. The DMEM/F12 medium contained 1% N-2 supplement, 200 nM ascorbic acid, 2% B27 supplement (manufactured by Invitrogen), 0.5 mM L-glutamine and 1% P/S. In order to prevent apoptosis, a ROCK inhibitor, Y-27632 (manufactured by Wako Pure Chemical Industries, Ltd.), was used at a concentration of 30 μM during the cell sorting process and the following overnight cultivation. On day 10 after starting the SFEB, any one of valproic acid (VPA) (manufactured by Sigma-Aldrich), zonisamide (ZNS) sodium salt (manufactured by Sumitomo Dainippon Pharma Co., Ltd.), 17β estradiol (E2) (manufactured by Sigma-Aldrich), a glial cell line derived neurotrophic factor (GDNF) (manufactured by R & D Systems) and PBS(-) was added to the medium for 4 days. Each of VPA, ZNS and E2 was used at three different concentrations. Specifically, the concentration of VPA was 0.01 mM, 0.1 mM or 1 mM, the concentration of ZNS was 1 μM, 10 μM or 100 μM, and the concentration of E2 was 1 nM, 10 nM or 100 nM. GDNF was added at a concentration of […] to be used as a positive control. […]
# [2] = system: grafts derived from mouse iPS cells; test: Transplantation experiment of mouse iPS cell-derived dopamine neural progenitor cells into striatum of SD rats (immunohistochemistry of grafts); format: in vivo; conditions: four weeks after transplantation
# Method: Ten-week-old Sprague-Dawley rats (SD rats, available from Shimizu Laboratory Supplies Co., Ltd.) were handled in accordance with the Guidelines for Animal Experiments of Kyoto University. Each SD rat was anesthetized, and donor cells were transplanted by stereotaxic injection into striatums on both sides. Two cell aggregates (containing 3.1×10^5 cells on average) obtained on day 9 after starting the SFEB were collected in 1 μl of PBS(-) so as to be used as the donor cells for the transplantation in each tract. To the PBS(-), Y-27632 was added at a final concentration of […]. Thereafter, intraperitoneal injection of VPA (150 mg/kg/day), ZNS sodium salt (30 mg/kg/day), E2 (80 μM/kg/day) or a saline was conducted from two days before transplanting the donor cells until a day of necropsy. For immunosuppression, cyclosporin A (CsA, manufactured by Wako Pure Chemical Industries, Ltd.) was administered to all the SD rats at a daily dose of 10 mg/kg. Four weeks after the transplantation of the donor cells, the brains of the SD rats were washed and fixed by intracardially perfusing 4% paraformaldehyde under deep anesthesia. On the day of necropsy, a blood sample was collected from each SD rat one hour after the final injection of the test compound or CsA. Such a sample was sent to SRL, Inc. (Tokyo, Japan) where the blood concentration of the administered drug (test compound) was measured.
# In an in vitro experiment, a cell aggregate treated with any of the above-described test compounds on day 14 after starting the SFEB was fixed with 4% paraformaldehyde. Thereafter, the fixed cell aggregate was frozen and sliced into thin sections each having a thickness of 10 μM by using a microtome for immunocytochemistry. On the other hand, in an in vivo experiment (transplantation experiment), the brain of a SD rat or a SCID rat was taken out after the transplantation experiment to be fixed again with 4% paraformaldehyde for 2 days. Thereafter, the fixed brain of the SD rat or SCID rat was cryopreserved in 30% sucrose for 3 days, frozen, and sliced into thin sections each having a thickness of 40 μM for immunohistochemistry. The frozen sections of the sphere (spherical cell mass) and the brain were subjected to a permeabilization and blocking treatment in PBS(-) for 1 hour at room temperature to be used as samples. The PBS(-) contained 0.3% Triton-X and 2% donkey serum. Thereafter, each of the sections was incubated overnight together with a primary antibody at 4° C. Primary antibodies used in this example are a rabbit anti-tyrosine hydroxylase antibody (dilution rate of 1:400, TH; manufactured by Millipore), a mouse anti-TH antibody (dilution rate of 1:200, manufactured by Millipore), a sheep anti-TH antibody (dilution rate of 1:400, manufactured by Millipore), a mouse anti-Tubβ3 antibody (dilution rate of 1:1000, Tuj1; manufactured by Covance Inc.), a rat anti-NURR1 antibody (dilution rate of 1:1000, KAN Research Institute, Inc., Kobe, Japan), a rabbit anti-Ki67 antibody (dilution rate of 1:1000, manufactured by Novocastra: NCL-Ki67p), a rabbit anti-caspase 3 antibody (dilution rate of 1:500, manufactured by Santa Cruz Biotechnology, Inc.), a rat anti-M2M6 antibody (dilution rate of 1:50, manufactured by Developmental Study Hybridoma Bank), a mouse anti-Nestin antibody (dilution rate of 1:50; manufactured by Millipore), a rabbit anti-Pitx3 antibody (dilution rate of 1:500; manufactured by Chemicon International Inc.), a goat […] antibody (dilution rate of 1:500, Foxa2; manufactured by Santa Cruz Biotechnology, Inc.), a mouse anti-human Nuclei antibody (dilution rate of 1:1000; manufactured by Millipore), and a mouse anti-NeuN antibody (dilution rate of 1:500, manufactured by Chemicon International Inc.). After washing with PBS (0.05% Tween-20) three times, the resultant sample was incubated with an Alexa Fluor-conjugated secondary antibody for 1 hour at room temperature. […]
smiles,measurement,setting,value
"CCCC(CCC)C(=O)[O-].[Na+] [VPA, sodium 2-propylpentanoate]",ratio of dopaminergic neurons undergoing apoptosis (TH+ neurons expressing caspase 3),[1],low
same,volume of graft,"[2]; VPA 150 mg/kg/day i.p., control 9.76±3.19 mm^3, no significant difference",4.33±2.14 mm^3
same,ratio of NeuN+ cells to the number of all the cells in a graft,"[2]; VPA 150 mg/kg/day i.p., control 57.7±9.4%",77.9±5.1%
same,number of TH+ cells in a graft,"[2]; VPA 150 mg/kg/day i.p., control 393±311 cells",1396±864 cells
same,ratio of TH+ cells that were FOXA2+,"[2]; VPA 150 mg/kg/day or ZNS 30 mg/kg/day i.p., control 24.7±9.3%",81.8±33.6%
same,number of midbrain dopaminergic neurons (TH+ FOXA2+) in a graft,"[2]; VPA 150 mg/kg/day or ZNS 30 mg/kg/day i.p., control 97±76 cells",984±770 cells
